# Assay results taken from ChEMBL document CHEMBL5331083, “Targeting ferroptosis: Paving new roads for drug design and discovery” (Eur J Med Chem, 2023).
# Assays:
# Type in all cases: functional, cell-based
# [1] = Inhibition of ferroptosis in tamoxifen induced Gpx4-/- mouse MEF cells
# [2] = Inhibition of erastin-induced cell death in human HT-1080 cells
# [3] = tested on: MCF7; experiment: Cytotoxicity against human MCF7 cells incubated for 48 hrs by MTT assay; details: MCF7, 48 h
# [4] = tested on: HT-22; experiment: Inhibition of erastin-induced ferroptosis in mouse HT-22 cells incubated for 24 hrs by MTT assay; details: HT-22, 24 h
# [5] = tested on: HT-22; experiment: Inhibition of RSL3-induced ferroptosis in mouse HT-22 cells incubated for 24 hrs by MTT assay; details: HT-22, 24 h
structure (smiles),measurement,setting,value
Clc1cccc(CNC2=Nc3ccccc3NC23CCNCC3)c1,IC50,[1],22 nM
CCOC(=O)c1ccc(NC2CCCCC2)c(N)c1,IC50,[2],95 nM
CCOC(=O)c1ccc(NC2CCCCC2)c(NCc2ccccc2)c1,IC50,[2],6 nM
COc1cc(O)c2c(=O)cc(-c3ccc(O)c(-c4c(O)cc5oc(-c6ccc(O)cc6)cc(=O)c5c4OC)c3)oc2c1,IC50,[3],11900 nM
CCO[C@@H]1C[C@@H]2C[C@@H]([C@@]3(C)[C@H](C)C[C@H](OC(C)=O)[C@]4(COC(C)=O)[C@@H]3CC[C@H](OC(=O)C(C)CC)[C@]43CO3)O[C@@H]2O1 (stereo partly specified),EC50,[4],4100 nM
same,EC50,[5],3600 nM
